Source: publication PMC8763936 (Investigational New Drugs, 2021)
pIC50: −log10 of the molar value.

Legend:
[1] = Study 1 Cohort 2: single dose entrectinib alone or with rifampin, plasma pharmacokinetics; settings: for t1/2 / half-life / AUCinf / Cmax: geometric mean (geometric CV); for M5/Entrectinib ratio, AUCinf / M5/Entrectinib ratio, Cmax: arithmetic mean (CV)
Description: All doses of study medication were administered at the study center.

[2] = biological target: T1, CYP1A2 (Homo sapiens, UniProt P05177); test: In vitro CYP inhibition in human liver microsomes; assay type: in vitro ADME; design: purchased Corning-Gentest
T1 sequence (P05177 1-516): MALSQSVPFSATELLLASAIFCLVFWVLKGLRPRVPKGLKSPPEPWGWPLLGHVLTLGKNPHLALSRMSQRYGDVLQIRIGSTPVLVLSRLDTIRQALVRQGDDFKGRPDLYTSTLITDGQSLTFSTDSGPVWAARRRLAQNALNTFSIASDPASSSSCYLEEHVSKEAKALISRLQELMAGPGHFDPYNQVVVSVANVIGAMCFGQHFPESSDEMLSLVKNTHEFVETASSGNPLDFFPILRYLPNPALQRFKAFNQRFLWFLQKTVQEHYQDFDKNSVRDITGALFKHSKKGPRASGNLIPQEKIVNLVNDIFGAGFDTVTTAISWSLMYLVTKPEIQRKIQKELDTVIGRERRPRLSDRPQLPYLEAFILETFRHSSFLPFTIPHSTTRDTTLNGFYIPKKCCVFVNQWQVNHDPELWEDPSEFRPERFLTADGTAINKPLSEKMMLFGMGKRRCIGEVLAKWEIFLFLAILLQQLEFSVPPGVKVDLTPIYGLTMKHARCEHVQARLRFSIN

[3] = biological target: T2, CYP2C9 (Homo sapiens, UniProt P11712); test: In vitro CYP inhibition in human liver microsomes; assay type: in vitro ADME; design: purchased Corning-Gentest
T2 sequence (P11712 whole entry): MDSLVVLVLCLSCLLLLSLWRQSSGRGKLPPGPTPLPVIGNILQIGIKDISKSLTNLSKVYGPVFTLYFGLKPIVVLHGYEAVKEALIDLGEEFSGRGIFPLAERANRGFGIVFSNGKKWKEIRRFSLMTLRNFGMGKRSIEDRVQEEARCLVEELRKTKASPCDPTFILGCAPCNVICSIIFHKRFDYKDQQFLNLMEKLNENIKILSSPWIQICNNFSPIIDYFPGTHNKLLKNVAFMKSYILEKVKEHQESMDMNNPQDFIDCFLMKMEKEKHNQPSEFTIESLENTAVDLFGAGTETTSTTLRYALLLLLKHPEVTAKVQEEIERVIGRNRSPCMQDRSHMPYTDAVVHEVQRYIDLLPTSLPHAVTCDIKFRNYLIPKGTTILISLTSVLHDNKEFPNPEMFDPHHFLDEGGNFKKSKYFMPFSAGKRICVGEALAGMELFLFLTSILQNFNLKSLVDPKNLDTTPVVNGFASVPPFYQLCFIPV

[4] = biological target: CYP2C19 (Homo sapiens, UniProt P33261); test: In vitro CYP inhibition in human liver microsomes; assay type: in vitro ADME; design: purchased Corning-Gentest
Sequence of CYP2C19 (P33261 whole entry): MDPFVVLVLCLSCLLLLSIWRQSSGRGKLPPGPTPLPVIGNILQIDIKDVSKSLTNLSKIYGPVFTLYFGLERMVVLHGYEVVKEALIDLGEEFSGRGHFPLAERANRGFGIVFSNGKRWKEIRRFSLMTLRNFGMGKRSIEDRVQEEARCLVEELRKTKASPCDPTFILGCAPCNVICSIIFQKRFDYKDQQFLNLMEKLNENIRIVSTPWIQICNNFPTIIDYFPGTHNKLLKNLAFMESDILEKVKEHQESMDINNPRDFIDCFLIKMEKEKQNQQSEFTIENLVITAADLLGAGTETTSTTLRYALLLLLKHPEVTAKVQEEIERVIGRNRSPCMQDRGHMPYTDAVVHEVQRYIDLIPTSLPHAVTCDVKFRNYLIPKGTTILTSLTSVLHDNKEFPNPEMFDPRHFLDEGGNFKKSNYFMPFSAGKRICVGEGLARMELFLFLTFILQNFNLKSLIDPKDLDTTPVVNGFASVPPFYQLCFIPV

[5] = biological target: T3, CYP1A1 (Homo sapiens, UniProt P04798); test: Metabolism by recombinantly expressed CYP enzymes; design: Entrectinib Metabolism to M5: key to the marks not given beside the values
T3 sequence (P04798 1-512): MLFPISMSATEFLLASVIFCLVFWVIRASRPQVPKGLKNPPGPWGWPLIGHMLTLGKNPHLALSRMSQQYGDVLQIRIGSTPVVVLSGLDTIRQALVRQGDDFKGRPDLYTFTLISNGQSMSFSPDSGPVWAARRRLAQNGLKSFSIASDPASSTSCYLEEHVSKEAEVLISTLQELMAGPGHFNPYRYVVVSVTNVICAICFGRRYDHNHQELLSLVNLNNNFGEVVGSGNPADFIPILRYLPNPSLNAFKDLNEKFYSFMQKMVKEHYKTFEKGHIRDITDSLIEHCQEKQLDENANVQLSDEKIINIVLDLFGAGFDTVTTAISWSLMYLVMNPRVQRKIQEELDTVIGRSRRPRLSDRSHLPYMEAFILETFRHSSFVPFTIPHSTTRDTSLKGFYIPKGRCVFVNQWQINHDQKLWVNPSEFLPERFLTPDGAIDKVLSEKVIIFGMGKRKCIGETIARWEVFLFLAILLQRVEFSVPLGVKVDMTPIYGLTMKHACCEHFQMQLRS

[6] = biological target: T1, CYP1A2; test: Metabolism by recombinantly expressed CYP enzymes
[7] = biological target: T4, CYP2B6 (Homo sapiens, UniProt P20813); test: Metabolism by recombinantly expressed CYP enzymes
T4 sequence (P20813 1-491): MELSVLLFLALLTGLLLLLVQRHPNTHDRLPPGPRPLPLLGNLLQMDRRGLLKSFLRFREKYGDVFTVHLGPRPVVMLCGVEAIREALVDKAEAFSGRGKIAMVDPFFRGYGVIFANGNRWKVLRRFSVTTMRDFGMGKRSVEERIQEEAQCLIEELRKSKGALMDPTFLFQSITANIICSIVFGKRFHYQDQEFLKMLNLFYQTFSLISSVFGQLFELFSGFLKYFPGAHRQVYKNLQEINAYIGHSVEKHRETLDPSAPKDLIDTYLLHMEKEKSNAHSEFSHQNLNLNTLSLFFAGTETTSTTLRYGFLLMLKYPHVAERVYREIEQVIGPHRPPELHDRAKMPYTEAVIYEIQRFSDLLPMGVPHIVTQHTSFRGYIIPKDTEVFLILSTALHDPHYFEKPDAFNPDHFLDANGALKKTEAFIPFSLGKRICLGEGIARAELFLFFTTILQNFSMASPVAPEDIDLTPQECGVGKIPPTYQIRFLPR

[8] = biological target: T5, CYP2C8 (Homo sapiens, UniProt P10632); test: Metabolism by recombinantly expressed CYP enzymes
T5 sequence (P10632 1-490): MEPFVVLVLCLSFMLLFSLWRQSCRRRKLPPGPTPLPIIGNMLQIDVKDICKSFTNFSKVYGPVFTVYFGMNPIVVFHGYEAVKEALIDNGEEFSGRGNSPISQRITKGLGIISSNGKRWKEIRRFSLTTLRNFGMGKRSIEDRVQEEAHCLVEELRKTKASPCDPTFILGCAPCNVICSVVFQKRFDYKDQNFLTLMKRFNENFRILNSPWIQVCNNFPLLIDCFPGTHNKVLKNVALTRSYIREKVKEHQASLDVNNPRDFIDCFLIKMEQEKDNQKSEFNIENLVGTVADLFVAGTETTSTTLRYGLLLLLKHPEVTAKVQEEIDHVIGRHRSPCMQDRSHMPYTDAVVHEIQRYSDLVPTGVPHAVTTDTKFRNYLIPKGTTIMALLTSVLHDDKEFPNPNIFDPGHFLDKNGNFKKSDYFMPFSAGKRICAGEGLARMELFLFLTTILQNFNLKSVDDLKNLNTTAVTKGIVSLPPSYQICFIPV

[9] = biological target: T2, CYP2C9; test: Metabolism by recombinantly expressed CYP enzymes
[10] = biological target: CYP3A4 (Homo sapiens, UniProt P08684); test: Metabolism by recombinantly expressed CYP enzymes; design: key to the marks not given beside the values
Sequence of CYP3A4 (P08684 whole entry): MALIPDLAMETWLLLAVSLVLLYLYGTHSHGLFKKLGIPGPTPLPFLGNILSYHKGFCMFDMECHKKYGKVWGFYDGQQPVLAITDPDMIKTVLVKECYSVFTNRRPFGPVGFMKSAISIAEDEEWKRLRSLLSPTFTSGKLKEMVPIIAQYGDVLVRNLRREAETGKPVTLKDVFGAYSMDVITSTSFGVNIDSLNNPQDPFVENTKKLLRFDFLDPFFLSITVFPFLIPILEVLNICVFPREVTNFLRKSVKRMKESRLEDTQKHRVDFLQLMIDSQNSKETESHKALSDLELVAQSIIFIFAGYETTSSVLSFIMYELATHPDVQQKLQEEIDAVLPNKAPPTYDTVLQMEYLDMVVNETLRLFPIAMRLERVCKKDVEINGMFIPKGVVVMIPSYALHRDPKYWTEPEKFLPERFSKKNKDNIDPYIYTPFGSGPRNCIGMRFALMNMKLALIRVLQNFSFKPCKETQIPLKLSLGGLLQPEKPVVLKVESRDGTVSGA

[11] = Metabolic profile of entrectinib in human hepatocytes
[12] = Metabolic profile of entrectinib in pooled human liver microsomes
[13] = Entrectinib 600 mg with rifampin 600 mg QD
[14] = Entrectinib 600 mg with rifampin

SMILES: CN1CCN(c2ccc(C(=O)Nc3n[nH]c4ccc(Cc5cc(F)cc(F)c5)cc34)c(NC3CCOCC3)c2)CC1 [Entrectinib]
- t1/2 ([1]; Entrectinib 600 mg alone): 16.7 (16%) h
- t1/2 [1, 13]: 9.9 (26%) h
- decrease of AUCinf ([1]; entrectinib coadministered with rifampin vs alone): 77%
- Tmax ([1]; human, in vivo, 600 mg): 2.0 (2.0, 5.0) h
- Tmax ([1]; human, in vivo, 600 mg, Tmax): 3.5 h
- half-life ([1]; human, in vivo, 600 mg, t1/2, Entrectinib 600 mg alone): 17 h
- half-life ([1]; human, in vivo, 600 mg, t1/2, Entrectinib 600 mg with rifampin 600 mg QD): 10 h
- pIC50 [2]: < 5.00
- pIC50 [3]: < 5.00
- pIC50 [4]: < 5.00
- Entrectinib Metabolism to M5 [5]: ++
- Entrectinib Metabolism to other Products [5]: +
- Entrectinib Metabolism to M5 [6]: -
- Entrectinib Metabolism to other Products [6]: -
- Entrectinib Metabolism to M5 [7]: -
- Entrectinib Metabolism to other Products [7]: -
- Entrectinib Metabolism to M5 [8]: +
- Entrectinib Metabolism to other Products [8]: +
- Entrectinib Metabolism to M5 [9]: -
- Entrectinib Metabolism to other Products [9]: -
- Entrectinib Metabolism to M5 [10]: +++
- Entrectinib Metabolism to other Products [10]: +++
- drug metabolized ([11]; after 120 min of incubation): 29%
- parent remained ([12]; 60 min incubation, pooled human liver microsomes with NADPH): 47%

SMILES: O=C(Nc1n[nH]c2ccc(Cc3cc(F)cc(F)c3)cc12)c1ccc(N2CCNCC2)cc1NC1CCOCC1 [M5]
- AUCinf ([1]; Entrectinib 600 mg alone, single dose, healthy subjects, fasted): 11,000 (44%) nM•h
- M5/Entrectinib ratio, AUCinf ([1]; Entrectinib 600 mg alone): 0.337 (56%)
- M5/Entrectinib ratio, Cmax ([1]; Entrectinib 600 mg alone): 0.234 (59%)
- Cmax ([1]; Entrectinib 600 mg alone): 383 nM
- t1/2 ([1]; Entrectinib 600 mg alone): 33.8 (12%) h
- Tmax ([1]; Entrectinib 600 mg alone, median (minimum, maximum)): 5.0 (4.0, 5.0) h
- AUCinf [1, 13]: 1530 (28%) nM•h
- Cmax [1, 13]: 108 nM
- t1/2 [1, 13]: 31.1 (28%) h
- Tmax ([1]; Entrectinib 600 mg with rifampin 600 mg QD, median (minimum, maximum)): 3.0 (2.0, 6.0) h
- M5/Entrectinib ratio, AUCinf [1, 14]: 0.187 (28%)
- M5/Entrectinib ratio, Cmax [1, 14]: 0.136 (23%)
- M5 exposure as share of entrectinib exposure (mean M5/entrectinib ratio for AUCinf) ([1]; entrectinib 600 mg alone): approximately 34%
- M5 exposure as share of entrectinib exposure (mean M5/entrectinib ratio for AUCinf) ([1]; entrectinib 600 mg coadministered with rifampin): 19%
- mean t1/2 ([1]; following entrectinib alone and with rifampin): 31 to 34 h
- pIC50 [2]: < 5.00
- pIC50 [3]: < 5.00
- pIC50 [4]: < 5.00
- M5 Metabolism [5]: +
- M5 Metabolism [6]: -
- M5 Metabolism [7]: -
- M5 Metabolism [8]: -
- M5 Metabolism [9]: -
- M5 Metabolism [10]: +++
- share of entrectinib metabolism [11]: 41%
- share of total drug-related material [11]: 12%
- share of [14C]entrectinib-derived radioactivity ([12]; human liver microsomes): 28%
